SMILES strings stand for the structures.

This data set is described as follows: Physical characteristics of LNPs (particle size, PDI). It is filed as physicochemical. Conditions: for PDI DNA / Particle Size (nm) DNA: LNP with Fluc DNA, compound/DOPE/Cholesterol/DMG-PEG2000 38/50/10.0/2.0, Lipid:DNA 45:1 (w/w); for PDI RNA / Particle Size (nm) RNA: LNP with Fluc mRNA, compound/DOPE/Cholesterol/DMG-PEG2000 41.44/45.85/10/2.7, Lipid:RNA 40:1 (w/w). As to the method: LNP compositions of the present disclosure comprising exemplary compounds of Formula (I) were prepared by combining various percentages of an exemplary compound of Formula (I), the phospholipid DOPE, the structural lipid cholesterol (Chol) and 1,2-dimyristoyl-sn-glycerol methoxypolyethylene glycol (DMG-PEG2000; Avanti Polar Lipids, Alabaster, Alabama, USA).
Individual 25 mg/ml stock solutions were prepared by solubilizing the lipids in 200-proof HPLC-grade ethanol and stock solutions were stored at −80° C. until formulated. At the time of formulation, the lipid stock solutions were briefly allowed to equilibrate to room temp and then placed on a hot plate maintained at a temperature range of 50-55° C.
A 1 mg/ml solution of the desired mRNA or DNA to be incorporated into the LNPs was added to 150 mM sodium acetate buffer (pH 5.2) to form a stock solution and kept on ice. The aqueous mRNA or DNA was then added to the lipids as shown in Table 4 or 5 and hand-mixed vigorously with a single channel pipettor.
The resultant mRNA or DNA LNP compositions were then transferred to a Repligen Float-A-Lyzer dialysis device-having a molecular weight cut off (MWCO) of 8-10 kDa (Spectrum Chemical Mfg. Corp, CA, USA) and processed by dialysis against phosphate buffered saline (PBS) (dialysate: dialysis buffer volume at least 1:200 v/v), pH 7.4 overnight at 4° C. (or alternatively room temperature for at least 4 hours), to remove the 25% ethanol and achieve a complete buffer exchange. In some experiments the LNPs were further concentrated by in an Amicon® Ultra-4 centrifugal filter unit, MWCO-30 kDa (Millipore Sigma, USA) spun at ˜4100 x g in an ultracentrifuge. The mRNA and DNA LNPs were then stored at 4° C. until further use.
LNP compositions of the present disclosure comprising mRNA or DNA encoding firefly luciferase (hereafter “Fluc”; TriLink) and COMPOUNDS 5-49 were prepared as described in Example 61 by combining one of COMPOUNDS 5-49, the phospholipid DOPE, the structural lipid cholesterol (Chol) and 1,2-dimyristoyl-sn-glycerol methoxypolyethylene glycol (DMG-PEG2000) in the percentages presented in Tables 6 and 7:
The physical characteristics of the resulting LNPs were analyzed.
A 1 mg/ml solution of the 5′-CleanCap--fLuciferase mRNA (TriLink Biotech) to be incorporated into the LNPs was added to 150 mM sodium acetate buffer (pH 5.2) to form a stock solution and kept on ice. The lipid phase was mixed with the aqueous mRNA phase inside a microfluidic chip using a NanoAssemblr® instrument (Precision Nanosystems, Vancouver, BC, Canada) according to the manufacturer's instructions to form LNP compositions comprising encapsulated mRNAs.
The average particle size diameter of the LNPs was approximately 75-150 nm.

Take `CCCCN(CCOC(=O)C1CC=C(CC/C=C(\C)CCC=C(C)C)CC1)CCOC(=O)C1CC=C(CC/C=C(\C)CCC=C(C)C)CC1` (centres unmarked) [Compound 34]: the “PDI DNA” value is listed as 0.128, the “Particle Size (nm) DNA” value came to 290.2 nm, the “PDI RNA” value is given as 0.127 and the “Particle Size (nm) RNA” value was determined as 386.4 nm.
In the same order, the values of `CC(C)=CCCC1=CCC(C(=O)OCCN(CCO)CCOC(=O)C2CC=C(CCC=C(C)C)CC2)CC1` (centres unmarked) [Compound 49] are 0.104, 308.7 nm, 0.045 and 245.3 nm.
In the same order, the values of `CCN(CCOC(=O)C1CC=C(CC/C=C(\C)CCC=C(C)C)CC1)CCOC(=O)C1CC=C(CC/C=C(\C)CCC=C(C)C)CC1` (centres unmarked) [Compound 33] are 0.087, 302 nm, 0.079 and 332.9 nm.
`CC(C)=CCCC1=CCC(C(=O)OCCN(C)CCOC(=O)C2CC=C(CCC=C(C)C)CC2)CC1` (centres unmarked) [Compound 42]: the “PDI DNA” value is listed as 0.039, the “Particle Size (nm) DNA” value stood at 289.2 nm, the “PDI RNA” value amounted to 0.121 and the “Particle Size (nm) RNA” value worked out at 304.2 nm.
On to `CC(C)=CCCC1=CCC(C(=O)OCCN2CCN(CCOC(=O)C3CC=C(CCC=C(C)C)CC3)CC2)CC1` (centres unmarked) [Compound 46], for which the “PDI DNA” value stood at 0.116, the “Particle Size (nm) DNA” value is recorded as 309 nm, the “PDI RNA” value is on record as 0.078 and the “Particle Size (nm) RNA” value is given as 334.6 nm.
For `CC(C)CCCC1CCC(C(=O)OCCOC(=O)CCN(CCCCCCN(CCC(=O)OCCOC(=O)C2CCC(CCCC(C)C)CC2)CCC(=O)OCCOC(=O)C2CCC(CCCC(C)C)CC2)CCC(=O)OCCOC(=O)C2CCC(CCCC(C)C)CC2)CC1` (centres unmarked) [Compound 27], in that order: 0.177, 253.9 nm, 0.149 and 293.9 nm.
Consider `CC(C)CCCC1CCC(C(=O)OCCOC(=O)CCN(CCCN(C)C)CCC(=O)OCCOC(=O)C2CCC(CCCC(C)C)CC2)CC1` (centres unmarked) [Compound 25], for which the “PDI DNA” value came out at 0.227, the “Particle Size (nm) DNA” value came to 188.5 nm, the “PDI RNA” value came to 0.143 and the “Particle Size (nm) RNA” value is reported as 177.9 nm.
For `CC(C)CCCC(C)CCCC1CCC(C(=O)OCCOC(=O)CCN(CCCCCCN(CCC(=O)OCCOC(=O)C2CCC(CCCC(C)CCCC(C)C)CC2)CCC(=O)OCCOC(=O)C2CCC(CCCC(C)CCCC(C)C)CC2)CCC(=O)OCCOC(=O)C2CCC(CCCC(C)CCCC(C)C)CC2)CC1` (centres unmarked) [Compound 14], in that order: 0.219, 348.8 nm, 0.104 and 334.8 nm.
On to `CC(C)=CCC/C(C)=C/CCC1=CCC(C(=O)OCCOC(=O)CCN(CCC(=O)OCCOC(=O)C2CC=C(CC/C=C(\C)CCC=C(C)C)CC2)CCN(CCN(CCC(=O)OCCOC(=O)C2CC=C(CC/C=C(\C)CCC=C(C)C)CC2)CCC(=O)OCCOC(=O)C2CC=C(CC/C=C(\C)CCC=C(C)C)CC2)CCN(CCC(=O)OCCOC(=O)C2CC=C(CC/C=C(\C)CCC=C(C)C)CC2)CCC(=O)OCCOC(=O)C2CC=C(CC/C=C(\C)CCC=C(C)C)CC2)CC1` (centres unmarked) [Compound 11], for which the “PDI DNA” value was found to be 0.152, the “Particle Size (nm) DNA” value amounted to 396.1 nm, the “PDI RNA” value was determined as 0.145 and the “Particle Size (nm) RNA” value was 355.6 nm.
Turning to `CC(C)=CCC/C(C)=C/CCC1=CCC(C(=O)OCCN(C)CCOC(=O)C2CC=C(CC/C=C(\C)CCC=C(C)C)CC2)CC1` (centres unmarked) [Compound 32], the “PDI DNA” value is recorded as 0.09, the “Particle Size (nm) DNA” value was found to be 289.2 nm, the “PDI RNA” value stood at 0.108 and the “Particle Size (nm) RNA” value came to 269.6 nm.
For `CC(C)=CCC/C(C)=C/CCC1=CCC(C(=O)OCCOC(=O)CCN(CCCCCCN(CCC(=O)OCCOC(=O)C2CC=C(CC/C=C(\C)CCC=C(C)C)CC2)CCC(=O)OCCOC(=O)C2CC=C(CC/C=C(\C)CCC=C(C)C)CC2)CCC(=O)OCCOC(=O)C2CC=C(CC/C=C(\C)CCC=C(C)C)CC2)CC1` (centres unmarked) [Compound 7], the “PDI DNA” value is 0.221, the “Particle Size (nm) DNA” value is reported as 299.7 nm, the “PDI RNA” value was 0.099 and the “Particle Size (nm) RNA” value stood at 441.0 nm.
In the same order, the values of `CCCCN(CCOC(=O)C1CC=C(CCC=C(C)C)CC1)CCOC(=O)C1CC=C(CCC=C(C)C)CC1` (centres unmarked) [Compound 44] are 0.102, 270 nm, 0.09 and 329 nm.
For `CC(C)=CCCC1=CCC(C(=O)OCCOC(=O)CN(C)CC(=O)OCCOC(=O)C2CC=C(CCC=C(C)C)CC2)CC1` (centres unmarked) [Compound 47], in that order: 0.223, 357.6 nm, 0.122 and 363.7 nm.
In the same order, the values of `CC(C)CCCC1CCC(C(=O)OCCOC(=O)CCN(CCC(=O)OCCOC(=O)C2CCC(CCCC(C)C)CC2)CCN2CCCCC2)CC1` (centres unmarked) [Compound 26] are 0.151, 162.1 nm, 0.202 and 169.4 nm.
In the case of `CC(C)CCCC(C)CCCC1CCC(C(=O)OCCOC(=O)CCN(CCCN(C)C)CCC(=O)OCCOC(=O)C2CCC(CCCC(C)CCCC(C)C)CC2)CC1` (centres unmarked) [Compound 12, ((3,3′-((3-(dimethylamino)propyl)azanediyl)bis(propanoyl))bis(oxy)) bis(ethane-2,1-diyl)bis(4-(4,8-dimethylnonyl)cyclohexanecarboxylate)], the “PDI DNA” value turned out to be 0.235, the “Particle Size (nm) DNA” value is 170.6 nm, the “PDI RNA” value was 0.235 and the “Particle Size (nm) RNA” value is given as 167.6 nm.
`CC(C)=CCC/C(C)=C/CCC1=CCC(C(=O)CCCN(CCO)CCOC(=O)C2CC=C(CC/C=C(\C)CCC=C(C)C)CC2)CC1` (centres unmarked) [Compound 39]: the “PDI DNA” value is reported as 0.138, the “Particle Size (nm) DNA” value is 272.5 nm, the “PDI RNA” value stood at 0.064 and the “Particle Size (nm) RNA” value stood at 297.1 nm.
In the same order, the values of `CC(C)=CCC/C(C)=C/CCC1=CCC(C(=O)OCCN(CCOC(=O)C2CC=C(CC/C=C(\C)CCC=C(C)C)CC2)CCOC(=O)C2CC=C(CC/C=C(\C)CCC=C(C)C)CC2)CC1` (centres unmarked) [Compound 38] are 0.208, 398.8 nm, 0.128 and 359.7 nm.

Values taken from patent publication US20250099383A1, “COMPOSITIONS AND METHODS FOR DELIVERY OF NUCLEIC ACIDS” (Poseida Therapeutics, Inc., priority 2022, published 2025).
